Laboratory results reported in the NIST ThermoML archive (doi:10.1016/j.fluid.2016.07.034).

Test: molar heat capacity at constant pressure
Settings: Flow calorimetry

CCF [fluoroethane]
Settings	molar heat capacity at constant pressure [J/K/mol]
303.42 K, 1340 kPa, Liquid	107.27
303.47 K, 1930 kPa, Liquid	106.74
303.48 K, 6470 kPa, Liquid	102.68
303.49 K, 9530 kPa, Liquid	100.86
303.5 K, 2520 kPa, Liquid	106.24
303.5 K, 8030 kPa, Liquid	101.83
303.5 K, 10100 kPa, Liquid	100.8
303.51 K, 7100 kPa, Liquid	102.32
303.51 K, 11050 kPa, Liquid	100.2
303.52 K, 5200 kPa, Liquid	103.84
303.52 K, 8440 kPa, Liquid	101.93
303.52 K, 10520 kPa, Liquid	100.64
303.52 K, 11560 kPa, Liquid	100.42
303.53 K, 3000 kPa, Liquid	106.02
303.53 K, 5540 kPa, Liquid	103.57
303.53 K, 5980 kPa, Liquid	103.24
303.53 K, 7520 kPa, Liquid	102.26
303.53 K, 9130 kPa, Liquid	101.37
303.54 K, 12050 kPa, Liquid	100.01
303.55 K, 3510 kPa, Liquid	105.63
303.55 K, 4550 kPa, Liquid	104.88
303.57 K, 4010 kPa, Liquid	105.42
313.31 K, 2010 kPa, Liquid	110.61
313.33 K, 3080 kPa, Liquid	109.26
313.35 K, 2560 kPa, Liquid	110.04
313.35 K, 3500 kPa, Liquid	108.56
313.36 K, 4000 kPa, Liquid	108.09
313.37 K, 4510 kPa, Liquid	107.49
313.37 K, 7030 kPa, Liquid	104.99
313.38 K, 8490 kPa, Liquid	103.71
313.38 K, 9510 kPa, Liquid	102.92
313.39 K, 5070 kPa, Liquid	107.08
313.39 K, 7490 kPa, Liquid	104.67
313.4 K, 9090 kPa, Liquid	103.61
313.4 K, 10010 kPa, Liquid	102.8
313.41 K, 1510 kPa, Liquid	112.39
313.41 K, 6080 kPa, Liquid	106.37
313.42 K, 5490 kPa, Liquid	106.99
313.42 K, 7980 kPa, Liquid	104.69
313.42 K, 10490 kPa, Liquid	102.75
313.43 K, 6510 kPa, Liquid	106.03
313.43 K, 10980 kPa, Liquid	102.52
313.47 K, 11470 kPa, Liquid	102.55
315.33 K, 1020 kPa, Gas	77.84
315.39 K, 1110 kPa, Gas	80.21
315.56 K, 1220 kPa, Gas	83.09
324.11 K, 2050 kPa, Liquid	115.84
324.13 K, 2570 kPa, Liquid	114.7
324.13 K, 8110 kPa, Liquid	105.47
324.14 K, 5980 kPa, Liquid	108.6
324.15 K, 3000 kPa, Liquid	113.84
324.15 K, 8550 kPa, Liquid	105.2
324.16 K, 4060 kPa, Liquid	111.82
324.16 K, 6470 kPa, Liquid	107.92
324.16 K, 7520 kPa, Liquid	106.39
324.17 K, 5510 kPa, Liquid	109.38
324.17 K, 10040 kPa, Liquid	103.35
324.18 K, 3500 kPa, Liquid	113.06
324.18 K, 4510 kPa, Liquid	111.09
324.19 K, 7020 kPa, Liquid	107.27
324.19 K, 9040 kPa, Liquid	104.9
324.19 K, 10510 kPa, Liquid	103.17
324.19 K, 11010 kPa, Liquid	102.91
324.21 K, 5030 kPa, Liquid	110.51
324.21 K, 9450 kPa, Liquid	104.56
324.21 K, 11610 kPa, Liquid	102.46
324.22 K, 12030 kPa, Liquid	102.24
325.23 K, 1300 kPa, Gas	79.4
325.26 K, 1210 kPa, Gas	77.2
325.57 K, 1110 kPa, Gas	75.5
333.86 K, 2520 kPa, Liquid	124.88
333.92 K, 3010 kPa, Liquid	123.2
333.97 K, 5000 kPa, Liquid	117.16
333.97 K, 5500 kPa, Liquid	115.91
333.98 K, 5990 kPa, Liquid	114.8
333.99 K, 3510 kPa, Liquid	121.92
333.99 K, 4620 kPa, Liquid	118.27
333.99 K, 9500 kPa, Liquid	108.39
334 K, 4070 kPa, Liquid	120.01
334 K, 6530 kPa, Liquid	113.92
334.01 K, 10060 kPa, Liquid	108
334.02 K, 7050 kPa, Liquid	112.82
334.03 K, 8960 kPa, Liquid	109.42
334.03 K, 10520 kPa, Liquid	107.4
334.03 K, 11040 kPa, Liquid	107.08
334.05 K, 7490 kPa, Liquid	112.09
334.05 K, 8350 kPa, Liquid	110.82
334.05 K, 11630 kPa, Liquid	106.69
334.07 K, 12280 kPa, Liquid	106.31
334.76 K, 1410 kPa, Gas	77.78
335.09 K, 1600 kPa, Gas	82.79
335.23 K, 1510 kPa, Gas	80.11
335.46 K, 1300 kPa, Gas	75.24
335.63 K, 1210 kPa, Gas	74.2
343.4 K, 2840 kPa, Liquid	135.92
343.44 K, 3020 kPa, Liquid	134.94
343.77 K, 3540 kPa, Liquid	133.68
343.84 K, 4040 kPa, Liquid	131.08
343.88 K, 4520 kPa, Liquid	129.17
